# Assay results published in patent US10760110B2, “Antibiotic testing and screening system” (priority 2017, dated 2020).
# Where two headings read alike, the source gives them in different places.
# Assays:
# [1] = tested on: A. baumannii KW1 strains with aminoglycoside resistance plasmids; assay: Etest MIC of aminoglycosides, aminoglycoside-modifying enzyme or 16S rRNA methylase (Table 19); format: cell-based, Acinetobacter baumannii; details: for effects on the MIC: production of aminoglycoside-modifying enzymes; for effects on the MIC / resistance: production of 16S rRNA methylase, ArmA
# Description: DNA fragments of the resistance genes along with their flanking regions were amplified from clinical plasmids via PCR with specific primer pairs. The resulting PCR fragments were digested and then cloned into the plasmid pYMAb5 or pYMAb5Tc. The resulting plasmids were then transformed into A. baumannii KW1 via electroporation.
# (§1) The MICs of antibiotics were determined using the Etest (Biodisk AB, Sweden) according to the manufacturer's instructions. The MICs from the Etest, which fall between standard two-fold dilutions, were rounded up to the next highest two-fold value. The MICs of ceftazidime and cefotaxime against K. pneumoniae NVT1001 harbouring the pACYC177 plasmid with blaOXA-48 were further determined using a broth microdilution test according to the recommendations of the CLSI,^25 and the results were interpreted according to the breakpoints established by the CLSI in 2017.^25 Meanwhile, due to the lack of CLSI breakpoints in 2016 and 2017, the results for cephalothin were interpreted according to the breakpoints established by the CLSI in 2015,^26 and the results for moxifloxacin were interpreted according to the breakpoints established by the EUCAST in 2017.^27
# [2] = tested on: K. pneumoniae NVT1001 strains with aminoglycoside resistance plasmids; assay: Etest MIC of aminoglycosides, aminoglycoside-modifying enzyme or 16S rRNA methylase (Table 13); format: cell-based, Klebsiella pneumoniae; details: for effects on the MIC / resistance: production of 16S rRNA methylase, ArmA and RmtB
# Description: DNA fragments of the resistance genes along with their flanking regions were amplified from clinical plasmids via PCR with specific primer pairs. The resulting PCR fragments were digested and then cloned into the plasmid pACYC177 or pACYC184. The resulting plasmids were then transformed into K. pneumoniae strain NVT1001 via electroporation. The recombinant bacteria were plated onto LB agar plates containing kanamycin (50 mg/L) or chloramphenicol (50 mg/L), and the presence of the cloned gene was confirmed via PCR and DNA sequencing.
# as §1
# [3] = tested on: K. pneumoniae NVT1001 and its ΔompK35/36 and/or ΔramR mutants; assay: Etest MIC, OmpK35/36 loss and AcrAB-TolC overexpression (ΔramR) strains (Table 6); format: cell-based, Klebsiella pneumoniae; details: Klebsiella pneumoniae
# Description: as §1
# [4] = KW1 with AAC(3)-IIa on pYMAb5Tc
# [5] = KW1 with ANT(2”)-Ia on pYMAb5Tc
# [6] = KW1 with ANT(3”)-Ia on pYMAb5Tc
# [7] = KW1 with APH(3')-Ia on pYMAb5Tc
# [8] = KW1 with APH(3')-VIa on pYMAb5Tc
# [9] = KW1 with shuttle vector pYMAb5Tc
# [10] = NVT1001, no supplemental plasmid
# [11] = NVT1001 with AAC(3)-IId on pACYC184
# [12] = NVT1001 with AAC(3)-IVa on pACYC184
# [13] = NVT1001 with AAC(6′)-Ib-cr on pACYC184
# [14] = NVT1001 with ANT(2″)-Ia on pACYC184
# [15] = NVT1001 with ANT(3″)-Ia on pACYC184
# [16] = NVT1001 with APH(3′)-IIa on pACYC184
# [17] = NVT1001 with APH(3′)-Ia on pACYC184
# [18] = NVT1001 with StrA-StrB on pACYC184
# [19] = ΔramRΔ35/36, ΔramRΔompK35/36 mutant
Compound,"MIC ([1]; KW1, no supplemental plasmid)","MIC [1, 4]","MIC [1, 5]","MIC [1, 6]","MIC [1, 7]","MIC [1, 8]",MIC ([1]; KW1 with ArmA on pYMAb5Tc),"MIC [1, 9]","MIC [2, 10]","MIC [2, 11]","MIC [2, 12]","MIC [2, 13]","MIC [2, 14]","MIC [2, 15]","MIC [2, 16]","MIC [2, 17]",MIC ([2]; NVT1001 with ArmA on pACYC184),MIC ([2]; NVT1001 with RmtB on pACYC184),"MIC [2, 18]","MIC ([3]; WT, NVT1001, read-out: MIC)",also measured
NCC[C@H](O)C(=O)N[C@@H]1C[C@H](N)[C@@H](O[C@H]2O[C@H](CN)[C@@H](O)[C@H](O)[C@H]2O)[C@H](O)[C@H]1O[C@H]1O[C@H](CO)[C@@H](O)[C@H](N)[C@H]1O [AMK],2 µg/mL,2 µg/mL,2 µg/mL,2 µg/mL,2 µg/mL,2 µg/mL,>256 µg/mL,2 µg/mL,2 mg/L,2 mg/L,2 mg/L,8 mg/L,2 mg/L,2 mg/L,2 mg/L,2 mg/L,>256 mg/L,>256 mg/L,2 mg/L,,
NCC[C@H](O)C(=O)N[C@@H]1C[C@H](N)[C@@H](O[C@H]2O[C@H](CN)[C@@H](O)[C@H](O)[C@H]2O)[C@H](O)[C@H]1O[C@H]1O[C@H](CO)[C@@H](O)[C@H](N)[C@H]1O [Amikacin],,,,,,,,,,,,,,,,,,,,2 µg/mL,"effects on the MIC [1]: no increase effects; MIC ([3]; Δ35, ΔompK35 mutant): 2 µg/mL; MIC ([3]; Δ35/36, ΔompK35/36 mutant): 2 µg/mL; MIC ([3]; Δ36, ΔompK36 mutant): 2 µg/mL; MIC ([3]; ΔramR mutant): 2 µg/mL; MIC ([3]; ΔramRΔ35, ΔramRΔompK35 mutant): 2 µg/mL; MIC [3, 19]: 2 µg/mL; MIC ([3]; ΔramRΔ36, ΔramRΔompK36 mutant): 2 µg/mL; susceptibility category ([2]; strains with different aminoglycoside-modifying enzymes): susceptible"
NC[C@@H]1O[C@@H](O[C@H]2[C@H](O)[C@@H](O[C@H]3O[C@H](CO)[C@@H](O)[C@H](N)[C@H]3O)[C@H](N)C[C@@H]2N)[C@@H](O)[C@H](O)[C@H]1O [KAN],2 µg/mL,2 µg/mL,4 µg/mL,2 µg/mL,16 µg/mL,16 µg/mL,>256 µg/mL,2 µg/mL,2 mg/L,4 mg/L,8 mg/L,32 mg/L,>256 mg/L,2 mg/L,>256 mg/L,>256 mg/L,>256 mg/L,>256 mg/L,2 mg/L,,
CCN[C@@H]1C[C@H](N)[C@@H](O[C@H]2OC(CN)=CC[C@H]2N)[C@H](O)[C@H]1O[C@H]1OC[C@](C)(O)[C@H](NC)[C@H]1O [NET],1.5 µg/mL,1.5 µg/mL,1.5 µg/mL,1.5 µg/mL,1.5 µg/mL,1.5 µg/mL,>256 µg/mL,1.5 µg/mL,0.5 mg/L,4 mg/L,64 mg/L,8 mg/L,1 mg/L,0.5 mg/L,0.5 mg/L,0.5 mg/L,>256 mg/L,>256 mg/L,0.5 mg/L,,
CN[C@@H]1[C@H](O)[C@H](NC)[C@H]2O[C@@]3(O)C(=O)C[C@@H](C)O[C@H]3O[C@@H]2[C@H]1O [SPT],24 µg/mL,24 µg/mL,24 µg/mL,192 µg/mL,24 µg/mL,24 µg/mL,24 µg/mL,24 µg/mL,16 mg/L,16 mg/L,16 mg/L,16 mg/L,16 mg/L,>1024 mg/L,16 mg/L,16 mg/L,16 mg/L,16 mg/L,16 mg/L,,
CN[C@@H]1[C@H](O[C@H]2[C@H](O[C@H]3[C@H](O)[C@@H](O)[C@H](N=C(N)N)[C@@H](O)[C@@H]3N=C(N)N)O[C@@H](C)[C@]2(O)C=O)O[C@@H](CO)[C@H](O)[C@H]1O [STR],12 µg/mL,8 µg/mL,8 µg/mL,8 µg/mL,12 µg/mL,12 µg/mL,8 µg/mL,12 µg/mL,2 mg/L,2 mg/L,2 mg/L,2 mg/L,2 mg/L,16 mg/L,2 mg/L,2 mg/L,2 mg/L,2 mg/L,1024 mg/L,,
CN[C@@H]1[C@H](O)[C@H](NC)[C@H]2O[C@@]3(O)C(=O)C[C@@H](C)O[C@H]3O[C@@H]2[C@H]1O [Spectinomycin],,,,,,,,,,,,,,,,,,,,16 µg/mL,"effects on the MIC / resistance [1]: not associated with increase effects; MIC ([3]; Δ35, ΔompK35 mutant): 16 µg/mL; MIC ([3]; Δ35/36, ΔompK35/36 mutant): 16 µg/mL; MIC ([3]; Δ36, ΔompK36 mutant): 16 µg/mL; MIC ([3]; ΔramR mutant): 16 µg/mL; MIC ([3]; ΔramRΔ35, ΔramRΔompK35 mutant): 16 µg/mL; MIC [3, 19]: 16 µg/mL; MIC ([3]; ΔramRΔ36, ΔramRΔompK36 mutant): 16 µg/mL; effects on the MIC / resistance [2]: not associated with observable effects"
[H]/N=C(/N)N[C@H]1[C@H](O)[C@@H](O)[C@H](O[C@@H]2O[C@@H](C)[C@](O)(C=O)[C@H]2O[C@@H]2O[C@@H](CO)[C@H](O)[C@@H](O)[C@@H]2NC)[C@@H](N/C(N)=N\[H])[C@@H]1O [Streptomycin],,,,,,,,,,,,,,,,,,,,2 µg/mL,"effects on the MIC / resistance [1]: not associated with increase effects; effects on the MIC [1]: no increase effects; MIC ([3]; Δ35, ΔompK35 mutant): 4 µg/mL; MIC ([3]; Δ35/36, ΔompK35/36 mutant): 4 µg/mL; MIC ([3]; Δ36, ΔompK36 mutant): 4 µg/mL; MIC ([3]; ΔramR mutant): 2 µg/mL; MIC ([3]; ΔramRΔ35, ΔramRΔompK35 mutant): 2 µg/mL; MIC [3, 19]: 4 µg/mL; MIC ([3]; ΔramRΔ36, ΔramRΔompK36 mutant): 4 µg/mL; effects on the MIC / resistance [2]: not associated with observable effects"
NC[C@H]1O[C@H](O[C@H]2[C@H](O)[C@@H](O[C@H]3O[C@H](CO)[C@@H](O)[C@H](N)[C@H]3O)[C@H](N)C[C@@H]2N)[C@H](N)C[C@@H]1O [TOB],0.5 µg/mL,0.5 µg/mL,2 µg/mL,0.5 µg/mL,0.5 µg/mL,0.5 µg/mL,>256 µg/mL,0.5 µg/mL,0.5 mg/L,4 mg/L,>256 mg/L,8 mg/L,64 mg/L,0.5 mg/L,0.5 mg/L,1 mg/L,>256 mg/L,>256 mg/L,0.5 mg/L,,
